The results in this text go back to PubChem BioAssay AID330 (DTP/NCI, 2004).

The test concerns P388 leukemia ip, CD2F1 mice, survival T/C. Put plainly: NCI In Vivo Anticancer Drug Screen. Data for tumor model P388 Leukemia (intraperitoneal) in CD2F1 (CDF1) mice. The settings on record: endpoint: median survival time, higher = longer survival. As for the experimental part: The antitumor activity of compounds was measured in mice bearing transplantable tumors. Survival or tumor size were measured and the results are expressed as the measurement made in the treated group (T) divided by the measurement made in the vehicle treated control group (C). The tumor model used in this assay is P388 Leukemia (intraperitoneal) in CD2F1 (CDF1) mice

[1] abbreviates: dose: 60.0 mg/kg/injection, schedule: Q01DX005 (ip), vehicle: saline with Tween-80.
Setting [2] is: dose: 100.0 mg/kg/injection, schedule: Q01DX001 (ip), vehicle: saline.
Where [3] appears, read: dose: 200.0 mg/kg/injection, schedule: Q01DX001 (ip), vehicle: saline.
The mark [4] stands for this setting: dose: 100.0 mg/kg/injection, schedule: Q01DX005 (ip), vehicle: saline with Tween-80.
[5] abbreviates: dose: 60.0 mg/kg/injection, schedule: Q01DX005 (ip), vehicle: saline.
[6] abbreviates: dose: 120.0 mg/kg/injection, schedule: Q01DX005 (ip), vehicle: saline.

Where “and” joins values, the source holds several entries; their conditions need not be identical. Equal entries are not always repeated. Toxic doses and inconclusive results are not listed.

In the case of `C[N+]12OC3CCC(O)CC1CCCC2C3` (stereo unspecified), the T/C (dose: 100.0 mg/kg/injection, schedule: Q01DX001 (ip), vehicle: water) is 100 % of control.

In the case of `COc1cc(C(Nc2ncccn2)c2cc3c(cc2OC(C)=O)OCO3)cc(OC)c1OC(C)=O` (stereo unspecified), the T/C reads like this: under setting [1], 105 % of control; (dose: 120.0 mg/kg/injection, schedule: Q01DX005 (ip), vehicle: saline with Tween-80) 100 % of control; (dose: 240.0 mg/kg/injection, schedule: Q01DX005 (ip), vehicle: saline with Tween-80) 99 % of control.

Turning to `C=C(C)C1=CC(=O)C(C)(C)O1`, the T/C reads like this: (dose: 12.5 mg/kg/injection, schedule: Q01DX009 (ip), vehicle: saline with Tween-80) 106 % of control; (dose: 25.0 mg/kg/injection, schedule: Q01DX009 (ip), vehicle: saline with Tween-80) 105 % of control; (dose: 50.0 mg/kg/injection, schedule: Q01DX009 (ip), vehicle: saline with Tween-80) 102 % of control.

For the compound `Cc1ccc(N=C(N)NN=C(c2ccc(Cl)cc2)c2ccc(Cl)cc2)cc1`, the T/C (dose: 25.0 mg/kg/injection, schedule: Q04DX002 (ip), vehicle: saline with Tween-80) was 98 % of control and 103 % of control and 107 % of control; the T/C (dose: 50.0 mg/kg/injection, schedule: Q04DX002 (ip), vehicle: saline with Tween-80) was 100 % of control and 106 % of control and 108 % of control; the T/C (dose: 100.0 mg/kg/injection, schedule: Q04DX002 (ip), vehicle: saline with Tween-80) is 107 % of control (2×) and 109 % of control; the T/C (dose: 200.0 mg/kg/injection, schedule: Q04DX002 (ip), vehicle: saline with Tween-80) was 105 % of control and 118 % of control and 120 % of control.

As to `CCOC(=O)C(=O)N1c2c(nc(N)[nH]c2=O)NCC1CNc1ccc(C(=O)NC(CCC(=O)O)C(=O)O)cc1` (stereo unspecified) (tested in a mixture with another compound), the T/C is 111 % of control (dose: 50.0 mg/kg/injection, schedule: Q01DX001 (ip), vehicle: saline); 101 % of control under setting [2]; 101 % of control under setting [3].

In the case of `CCCOc1cncc(C)n1`, the T/C is, setting by setting: (dose: 12.5 mg/kg/injection, schedule: Q01DX009 (ip), vehicle: saline) 95 % of control; (dose: 25.0 mg/kg/injection, schedule: Q01DX009 (ip), vehicle: saline) 87 % of control; (dose: 50.0 mg/kg/injection, schedule: Q01DX009 (ip), vehicle: saline) 101 % of control and 97 % of control.

On to `CCCCCCCC(=O)C1C(c2ccc(C(C)C)cc2)CC(=O)C(CCCCCC)C1c1ccc(C(C)C)cc1` (stereo unspecified), for which the T/C was 91 % of control (dose: 6.25 mg/kg/injection, schedule: Q01DX005 (ip), vehicle: saline with Tween-80); 89 % of control (dose: 12.5 mg/kg/injection, schedule: Q01DX005 (ip), vehicle: saline with Tween-80); 99 % of control (dose: 25.0 mg/kg/injection, schedule: Q01DX005 (ip), vehicle: saline with Tween-80); 93 % of control under setting [4]; 98 % of control (dose: 200.0 mg/kg/injection, schedule: Q01DX005 (ip), vehicle: saline with Tween-80).

`CSc1nc(N)nc2c1ncn2C1OC(CO)C(O)C1O` (stereo unspecified): the T/C is 90 % of control (dose: 100.0 mg/kg/injection, schedule: Q01DX009 (ip), vehicle: saline with Tween-80); 100 % of control (dose: 100.0 mg/kg/injection, schedule: Q04DX003 (ip), vehicle: saline sonified); 86 % of control (dose: 200.0 mg/kg/injection, schedule: Q01DX009 (ip), vehicle: saline with Tween-80); 100 % of control (dose: 200.0 mg/kg/injection, schedule: Q04DX003 (ip), vehicle: saline sonified); 100 % of control (dose: 400.0 mg/kg/injection, schedule: Q01DX009 (ip), vehicle: saline with Tween-80); 95 % of control (dose: 400.0 mg/kg/injection, schedule: Q04DX003 (ip), vehicle: saline sonified).

Regarding `COc1cccc2c1C(=O)c1c(O)c3c(c(O)c1C2=O)C[C@@](O)(C(C)O)C[C@@H]3OC1CC(N2CCC(OC)CC2)C(O)C(C)O1` (stereo partly specified), the T/C was 112 % of control (dose: 0.78 mg/kg/injection, schedule: Q04DX003 (ip), vehicle: water); 114 % of control (dose: 1.56 mg/kg/injection, schedule: Q04DX003 (ip), vehicle: water); 111 % of control and 117 % of control (dose: 3.12 mg/kg/injection, schedule: Q04DX003 (ip), vehicle: water); 188 % of control (dose: 6.25 mg/kg/injection, schedule: Q04DX003 (ip), vehicle: water); 158 % of control and 240 % of control (dose: 12.5 mg/kg/injection, schedule: Q04DX003 (ip), vehicle: water); 118 % of control (dose: 25.0 mg/kg/injection, schedule: Q04DX003 (ip), vehicle: water).

With `CCOC(=O)c1ccc(NN=NCCOC)cc1`, the T/C reads like this: (dose: 12.5 mg/kg/injection, schedule: Q01DX009 (ip), vehicle: distilled water + Tween-80) 102 % of control; (dose: 25.0 mg/kg/injection, schedule: Q01DX009 (ip), vehicle: distilled water + Tween-80) 101 % of control and 105 % of control; (dose: 50.0 mg/kg/injection, schedule: Q01DX009 (ip), vehicle: distilled water + Tween-80) 122 % of control and 123 % of control.

As for `CCOC(=O)N1CCN(C(=S)NNC(C)c2cccc[n+]2[O-])CC1` (stereo unspecified), the T/C (dose: 50.0 mg/kg/injection, schedule: Q01DX005 (ip), vehicle: saline with Tween-80) was 99 % of control and the T/C under setting [4] is 100 % of control.

With `CC(=O)OCC1OC(n2cccnc2=O)C(OC(C)=O)C1OC(C)=O` (stereo unspecified), the T/C (dose: 50.0 mg/kg/injection, schedule: Q01DX005 (ip), vehicle: saline) was 107 % of control; the T/C (dose: 100.0 mg/kg/injection, schedule: Q01DX005 (ip), vehicle: saline) is 107 % of control; the T/C (dose: 200.0 mg/kg/injection, schedule: Q01DX005 (ip), vehicle: saline) is 107 % of control; the T/C (dose: 400.0 mg/kg/injection, schedule: Q01DX005 (ip), vehicle: saline) was 102 % of control.

As for `Cc1cc(C#N)c[n+](C)c1`, the T/C runs as follows: under setting [5], 108 % of control; under setting [6], 95 % of control.

`CC(N)C(=O)NC(C(=O)NC1C(O)OC(CO)C(O)C1O)C(C)C` (stereo unspecified): the T/C under setting [5] was 99 % of control; the T/C under setting [6] is 104 % of control; the T/C (dose: 240.0 mg/kg/injection, schedule: Q01DX005 (ip), vehicle: saline) was 97 % of control.

For the compound `[Cl][Hg][Cl]`, the T/C by setting is: (dose: 0.94 mg/kg/injection, schedule: Q01DX005 (ip), vehicle: saline) 95 % of control; (dose: 1.88 mg/kg/injection, schedule: Q01DX005 (ip), vehicle: saline) 101 % of control.

With `O=C=Nc1ccc(N=Nc2ccccc2)cc1`, the T/C was 97 % of control (dose: 12.5 mg/kg/injection, schedule: Q04DX003 (ip), vehicle: saline with Tween-80); 90 % of control (dose: 25.0 mg/kg/injection, schedule: Q04DX003 (ip), vehicle: saline with Tween-80); 90 % of control (dose: 50.0 mg/kg/injection, schedule: Q04DX003 (ip), vehicle: saline with Tween-80); 90 % of control and 92 % of control (dose: 100.0 mg/kg/injection, schedule: Q04DX003 (ip), vehicle: saline with Tween-80); 92 % of control (dose: 150.0 mg/kg/injection, schedule: Q04DX003 (ip), vehicle: saline with Tween-80); 100 % of control (dose: 225.0 mg/kg/injection, schedule: Q04DX003 (ip), vehicle: saline with Tween-80). The T/C (dose: 335.0 mg/kg/injection, schedule: Q04DX003 (ip), vehicle: saline with Tween-80) is 93 % of control.

For the compound `NC(=O)C(=Nc1ccccc1)Nc1ccccc1`, the T/C under setting [2] is 115 % of control; the T/C under setting [3] was 107 % of control; the T/C (dose: 400.0 mg/kg/injection, schedule: Q01DX001 (ip), vehicle: saline) was 104 % of control.

Consider `CC(C)NC(=O)OCc1c(COC(=O)NC(C)C)c(S(=O)c2ccccc2)n2c1CCC2` (stereo unspecified), for which the T/C by setting is: (dose: 25.0 mg/kg/injection, schedule: Q01DX005 (ip), vehicle: distilled water + Tween-80) 113 % of control; (dose: 50.0 mg/kg/injection, schedule: Q01DX005 (ip), vehicle: distilled water + Tween-80) 110 % of control; (dose: 100.0 mg/kg/injection, schedule: Q01DX005 (ip), vehicle: distilled water + Tween-80) 113 % of control.

Take `Cc1ccc(-n2c(CSc3ccc(Cl)cc3)nnc2SCc2nc3ccccc3[nH]2)cc1`: the T/C (dose: 15.0 mg/kg/injection, schedule: Q01DX005 (ip), vehicle: saline with Tween-80) is 92 % of control; the T/C (dose: 30.0 mg/kg/injection, schedule: Q01DX005 (ip), vehicle: saline with Tween-80) is 102 % of control; the T/C under setting [1] was 96 % of control and 98 % of control.
